According to ChEMBL document CHEMBL5346903, “Discovery of novel and bioavailable histone deacetylases and cyclin-dependent kinases dual inhibitor to impair the stemness of leukemia cells” (Eur J Med Chem, 2023):
One block for each molecule: values may come before it.

Tests used:
HL-60 [1] = experiment: Induction of apoptosis in human HL-60 cells assessed as late apoptotic cells at 2.5 uM incubated for 48 hrs by annexin V-FITC/PI satining based flow cytometry (reference value: 2.83 %); format: functional
HL-60 [2] = experiment: Antiproliferative activity against human HL-60 cells incubated for 72 hrs by CCK8 assay; format: functional, cell-based; conditions: HL-60, 72 h
HL-60 [3] = experiment: Induction of apoptosis in human HL-60 cells assessed as necrotic cells at 2.5 uM incubated for 48 hrs by annexin V-FITC/PI satining based flow cytometry (reference value: 0.04 %); format: functional
U-937 [4] = experiment: Induction of apoptosis in human U-937 cells assessed as late apoptotic cells at 2.5 uM incubated for 48 hrs by annexin V-FITC/PI satining based flow cytometry (reference value: 4.23 %); format: functional
HL-60 [5] = experiment: Induction of apoptosis in human HL-60 cells assessed as late apoptotic cells at 5 uM incubated for 48 hrs by annexin V-FITC/PI satining based flow cytometry (reference value: 2.83 %); format: functional
U-937 [6] = experiment: Induction of apoptosis in human U-937 cells assessed as viable cells at 2.5 uM incubated for 48 hrs by annexin V-FITC/PI satining based flow cytometry (reference value: 93.7 %); format: functional; conditions: read-out: Activity
HL-60 [7] = experiment: Induction of differentiation in human HL-60 cells assessed as increase in CD11b positive cells at 5 uM incubated for 24 hrs by FITC staining based flow cytometry (reference value: 1.12 %); format: functional
U-937 [8] = experiment: Antiproliferative activity against human U-937 cells incubated for 72 hrs by CCK8 assay; format: functional, cell-based; conditions: U-937, 72 h
HL-60 [9] = experiment: Inhibition of colony formation in human HL-60 cells treated for 15 days by soft agar assay; format: functional, cell-based; conditions: time 15.0 day
U-937 [10] = experiment: Induction of apoptosis in human U-937 cells assessed as necrotic cells at 2.5 uM incubated for 48 hrs by annexin V-FITC/PI satining based flow cytometry (reference value: 0.102 %); format: functional
[11] = Cytotoxicity against human Kasumi 1 cells assessed as CD34positive CD38negative leukemic stem cell-like cells sub-population at 2 uM incubated for 24 hrs by APC/FITC satining based flow cytometry (reference value: 95.8 %); format: functional
Kasumi 1 = experiment: Antiproliferative activity against human Kasumi 1 cells incubated for 72 hrs by CCK8 assay; format: functional, cell-based; conditions: Kasumi 1, 72 h
U-937 [12] = experiment: Induction of differentiation in human U-937 cells assessed as increase in CD11b positive cells at 1.2 uM incubated for 48 hrs by FITC staining based flow cytometry (reference value: […] %); format: functional
[13] = Antiproliferative activity against human SKNO-1 cells incubated for 72 hrs by CCK8 assay; format: functional, cell-based; conditions: SKNO-1, 72 h
HL-60 [14] = experiment: Induction of apoptosis in human HL-60 cells assessed as early apoptotic cells at 2.5 uM incubated for 48 hrs by annexin V-FITC/PI satining based flow cytometry (reference value: 2.4 %); format: functional
HL-60 [15] = experiment: Induction of differentiation in human HL-60 cells assessed as increase in CD11b positive cells at 0.6 uM incubated for 24 hrs by FITC staining based flow cytometry (reference value: 1.12 %); format: functional
U-937 [16] = experiment: Inhibition of colony formation in human U-937 cells treated for 15 days by soft agar assay; format: functional, cell-based; conditions: time 15.0 day
[17] = Cytotoxicity against human Kasumi 1 cells assessed as CD34positive CD38negative leukemic stem cell-like cells sub-population at 1 uM incubated for 24 hrs by APC/FITC satining based flow cytometry (reference value: 96.8 %); format: functional
HL-60 [18] = experiment: Downregulation of Pol-II S5 level in human HL-60 cells incubated for 6 hrs by Western blot analysis; format: functional, cell-based; conditions: dose <= 1000.0 nM
[19] = AUC in Sprague-Dawley rat at 5 mg/kg, iv measured upto 6 hrs by LC/MS-MS analysis; format: ADME, organism-based; design: dose 5 mg/kg, time < 6 hrs, route iv; conditions: in vivo
[20] = biological target: Cyclin-dependent kinase 1/cyclin B1 (Homo sapiens) (UniProt P06493+P14635); experiment: Inhibition of CDK1/cyclinB1 (unknown origin) at 100 nM preincubated for 20 mins followed by [gamma-33P]ATP addition measured after 120 mins in presence of ATP by Hot-SpotSM kinase assay relative to control; format: protein-complex assay; conditions: time 140.0 min
Chain of Cyclin-dependent kinase 1/cyclin B1 (Homo sapiens) (P06493 whole entry, looked up): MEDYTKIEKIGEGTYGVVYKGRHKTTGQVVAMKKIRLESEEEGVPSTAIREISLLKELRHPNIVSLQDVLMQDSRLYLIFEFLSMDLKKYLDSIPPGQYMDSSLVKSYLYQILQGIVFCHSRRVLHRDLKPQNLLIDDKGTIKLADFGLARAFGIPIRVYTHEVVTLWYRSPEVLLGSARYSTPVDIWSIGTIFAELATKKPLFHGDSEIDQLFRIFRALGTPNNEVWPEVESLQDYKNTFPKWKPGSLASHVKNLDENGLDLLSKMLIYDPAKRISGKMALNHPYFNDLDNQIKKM
Chain of Cyclin-dependent kinase 1/cyclin B1 (Homo sapiens) (P14635 whole entry, looked up): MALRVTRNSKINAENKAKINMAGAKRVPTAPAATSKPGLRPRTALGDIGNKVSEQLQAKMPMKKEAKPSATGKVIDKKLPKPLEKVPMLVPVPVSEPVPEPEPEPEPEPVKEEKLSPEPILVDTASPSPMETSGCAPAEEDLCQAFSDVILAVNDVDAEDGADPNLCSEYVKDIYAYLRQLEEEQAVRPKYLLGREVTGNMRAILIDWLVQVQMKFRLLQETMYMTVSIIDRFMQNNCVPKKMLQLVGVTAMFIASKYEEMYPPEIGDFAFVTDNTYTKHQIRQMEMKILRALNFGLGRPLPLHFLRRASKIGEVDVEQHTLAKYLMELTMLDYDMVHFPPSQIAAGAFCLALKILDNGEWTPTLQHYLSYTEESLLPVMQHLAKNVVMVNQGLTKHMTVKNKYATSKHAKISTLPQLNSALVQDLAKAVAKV

[21] = biological target: CDK9/cyclin T1 (Homo sapiens) (UniProt O60563+P50750); experiment: Inhibition of CDK9/cyclinT1 (unknown origin) at 100 nM preincubated for 20 mins followed by [gamma-33P]ATP addition measured after 120 mins in presence of ATP by Hot-SpotSM kinase assay relative to control; format: protein-complex assay; conditions: time 140.0 min
[22] = Cytotoxicity against human Kasumi 1 cells assessed as CD34positive CD38negative leukemic stem cell-like cells sub-population at 0.5 uM incubated for 24 hrs by APC/FITC satining based flow cytometry (reference value: 96.8 %); format: functional
HL-60 [23] = experiment: Induction of differentiation in human HL-60 cells assessed as increase in CD11b positive cells at 2 uM incubated for 24 hrs by FITC staining based flow cytometry (reference value: 1.45 %); format: functional
[24] = biological target: CDK1/Cyclin E (Homo sapiens) (UniProt P06493+P24864); experiment: Inhibition of CDK1/cyclinE1 (unknown origin) at 100 nM preincubated for 20 mins followed by [gamma-33P]ATP addition measured after 120 mins in presence of ATP by Hot-SpotSM kinase assay relative to control; format: protein-complex assay; conditions: time 140.0 min
Chain of CDK1/Cyclin E (Homo sapiens) (P06493 whole entry, looked up): as the sequence (P06493 whole entry, looked up) above
Chain of CDK1/Cyclin E (Homo sapiens) (P24864 whole entry, looked up): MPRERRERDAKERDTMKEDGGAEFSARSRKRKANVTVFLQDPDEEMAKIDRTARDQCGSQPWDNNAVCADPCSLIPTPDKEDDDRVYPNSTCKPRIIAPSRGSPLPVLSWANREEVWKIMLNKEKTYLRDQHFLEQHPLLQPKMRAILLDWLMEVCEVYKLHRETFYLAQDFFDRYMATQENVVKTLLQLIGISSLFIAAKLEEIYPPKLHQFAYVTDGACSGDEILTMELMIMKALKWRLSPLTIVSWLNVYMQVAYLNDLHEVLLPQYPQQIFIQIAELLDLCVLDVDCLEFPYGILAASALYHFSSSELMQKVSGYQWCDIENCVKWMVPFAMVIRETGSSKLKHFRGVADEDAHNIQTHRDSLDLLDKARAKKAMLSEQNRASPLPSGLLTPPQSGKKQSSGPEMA

[25] = biological target: Cyclin-dependent kinase 5/CDK5 activator 1 (Homo sapiens) (UniProt Q00535+Q15078); experiment: Inhibition of CDK5/p25NCK (unknown origin) at 100 nM preincubated for 20 mins followed by [gamma-33P]ATP addition measured after 120 mins in presence of ATP by Hot-SpotSM kinase assay relative to control; format: protein-complex assay; conditions: time 140.0 min
Chain of Cyclin-dependent kinase 5/CDK5 activator 1 (Homo sapiens) (Q00535 whole entry): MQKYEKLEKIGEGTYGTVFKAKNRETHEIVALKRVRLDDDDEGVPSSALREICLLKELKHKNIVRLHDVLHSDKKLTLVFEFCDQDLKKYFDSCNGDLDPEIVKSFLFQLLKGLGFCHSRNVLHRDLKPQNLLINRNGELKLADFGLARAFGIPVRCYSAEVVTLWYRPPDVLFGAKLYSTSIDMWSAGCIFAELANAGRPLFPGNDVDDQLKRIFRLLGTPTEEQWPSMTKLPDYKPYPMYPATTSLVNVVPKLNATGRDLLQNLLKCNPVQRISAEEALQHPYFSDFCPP
Chain of Cyclin-dependent kinase 5/CDK5 activator 1 (Homo sapiens) (Q15078 99-307 partner limits assumed): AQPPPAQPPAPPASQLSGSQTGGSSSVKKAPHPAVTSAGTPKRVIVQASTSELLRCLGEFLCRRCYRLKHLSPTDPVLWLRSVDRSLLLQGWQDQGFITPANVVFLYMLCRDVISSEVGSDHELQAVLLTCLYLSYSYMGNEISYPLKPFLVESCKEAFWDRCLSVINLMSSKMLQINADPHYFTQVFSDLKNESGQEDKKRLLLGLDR

[26] = Tmax in Sprague-Dawley rat at 25 mg/kg, po measured upto 8 hrs by LC/MS-MS analysis; format: ADME, organism-based; conditions: in vivo
[27] = Clearance in Sprague-Dawley rat at 25 mg/kg, po measured upto 8 hrs by LC/MS-MS analysis; format: ADME, organism-based; conditions: in vivo
[28] = MRT in Sprague-Dawley rat at 5 mg/kg, iv measured upto 6 hrs by LC/MS-MS analysis; format: ADME, organism-based; conditions: in vivo
[29] = Half life in Sprague-Dawley rat at 25 mg/kg, po measured upto 8 hrs by LC/MS-MS analysis; format: ADME, organism-based; conditions: in vivo
HL-60 [30] = experiment: Induction of apoptosis in human HL-60 cells assessed as viable cells at 0.2 uM incubated for 48 hrs by annexin V-FITC/PI satining based flow cytometry (reference value: 97.4 %); format: functional; conditions: read-out: Activity
HL-60 [31] = experiment: Induction of apoptosis in human HL-60 cells assessed as viable cells at 0.5 uM incubated for 48 hrs by annexin V-FITC/PI satining based flow cytometry (reference value: 97.4 %); format: functional; conditions: read-out: Activity
U-937 [32] = experiment: Induction of apoptosis in human U-937 cells assessed as early apoptotic cells at 1 uM incubated for 48 hrs by annexin V-FITC/PI satining based flow cytometry (reference value: 0.945 %); format: functional
HL-60 [33] = experiment: Upregulation of Ac-Histone 3 level in human HL-60 cells incubated for 6 hrs by Western blot analysis; format: functional, cell-based; conditions: dose <= 1000.0 nM
[34] = biological target: Protein deacetylase HDAC6 (Homo sapiens, UniProt Q9UBN7); experiment: Inhibition of recombinant human HDAC6 using HDAC substrate incubated for 30 mins by fluorescence based assay
Chain of Protein deacetylase HDAC6 (Q9UBN7 whole entry): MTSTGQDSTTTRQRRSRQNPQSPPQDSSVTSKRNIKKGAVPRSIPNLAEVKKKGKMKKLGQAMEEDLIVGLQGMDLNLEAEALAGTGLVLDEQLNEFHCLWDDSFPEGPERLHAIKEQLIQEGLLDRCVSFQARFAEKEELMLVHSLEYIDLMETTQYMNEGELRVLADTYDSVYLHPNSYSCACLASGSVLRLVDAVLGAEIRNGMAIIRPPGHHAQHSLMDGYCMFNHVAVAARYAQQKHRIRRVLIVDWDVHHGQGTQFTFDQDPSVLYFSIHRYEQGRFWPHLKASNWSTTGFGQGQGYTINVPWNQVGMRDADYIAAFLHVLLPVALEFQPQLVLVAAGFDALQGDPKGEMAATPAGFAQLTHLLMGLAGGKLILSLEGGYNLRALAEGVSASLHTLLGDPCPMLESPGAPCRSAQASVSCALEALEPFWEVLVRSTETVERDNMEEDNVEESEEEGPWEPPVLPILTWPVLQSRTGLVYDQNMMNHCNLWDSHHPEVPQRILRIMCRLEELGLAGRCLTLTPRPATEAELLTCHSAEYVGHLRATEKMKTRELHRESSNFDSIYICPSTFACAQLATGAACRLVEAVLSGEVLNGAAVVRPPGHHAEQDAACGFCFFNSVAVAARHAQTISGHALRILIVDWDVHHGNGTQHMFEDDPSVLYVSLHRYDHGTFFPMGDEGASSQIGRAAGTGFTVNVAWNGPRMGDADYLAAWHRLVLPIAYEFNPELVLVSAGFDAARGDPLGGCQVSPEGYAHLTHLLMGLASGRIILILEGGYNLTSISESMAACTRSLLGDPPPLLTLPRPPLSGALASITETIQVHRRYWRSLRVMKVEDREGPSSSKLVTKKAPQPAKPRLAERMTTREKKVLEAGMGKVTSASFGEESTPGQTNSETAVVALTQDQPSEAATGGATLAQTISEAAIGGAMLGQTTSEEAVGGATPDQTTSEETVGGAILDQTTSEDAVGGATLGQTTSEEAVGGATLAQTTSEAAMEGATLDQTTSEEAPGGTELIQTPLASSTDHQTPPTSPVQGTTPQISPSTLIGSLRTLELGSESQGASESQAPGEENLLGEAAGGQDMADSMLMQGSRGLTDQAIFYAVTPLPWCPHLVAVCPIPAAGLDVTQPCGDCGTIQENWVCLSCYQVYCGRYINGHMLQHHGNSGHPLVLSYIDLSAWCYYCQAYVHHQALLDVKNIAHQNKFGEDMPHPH

IC50 (HL-60 [2]): 3110 nM
IC50 (U-937 [8]): 4660 nM
Compound: Nc1cc(F)ccc1NC(=O)c1ccc(CNC(=O)/C=C/c2cccnc2)cc1 [TUCIDINOSTAT]
Activity (HL-60 [1]): 37.9%
Activity (HL-60 [3]): 0.05%
Activity (U-937 [4]): 9.77%
Activity (HL-60 [5]): 73.4%
viability at 2.5 µM (U-937 [6]): 87.5%
Activity (HL-60 [7]): 71.1%
inhibition (HL-60 [9]): Dose-Dependent Effect
Activity (U-937 [10]): 0.084%
Activity [11]: 77.8%
IC50 (Kasumi 1): > 10000 nM
Activity (U-937 [12]): 5%
IC50 [13]: 5570 nM
Activity (HL-60 [14]): 5.95%
Activity (HL-60 [15]): 24.4%
inhibition (U-937 [16]): Dose-Dependent Effect

IC50 (HL-60 [2]): 1430 nM
AUC [19]: 836 ng·h/mL
inhibition [20]: 43.8%
inhibition [21]: 98.3%
IC50 (U-937 [8]): 720 nM
inhibition [24]: 27.6%
inhibition [25]: 95.2%
Tmax [26]: 45 min
CL/F [27]: 28.8 mL/min/kg
MRT [28]: 23.4 min
t1/2 [29]: 82.2 min
IC50 [34]: 723 nM
Compound: Nc1ccccc1NC(=O)c1ccc(NC(=O)c2n[nH]cc2NC(=O)c2c(Cl)cccc2Cl)cc1
Activity [17]: 35.3%
Activity (HL-60 [18]): Dose-Dependent Effect
Activity [22]: 45.4%
Activity (HL-60 [23]): 62.2%
inhibition (HL-60 [9]): Dose-Dependent Effect
IC50 (Kasumi 1): 890 nM
viability at 0.2 µM (HL-60 [30]): 96.4%
viability at 0.5 µM (HL-60 [31]): 94.4%
IC50 [13]: 1630 nM
Activity (U-937 [32]): 1.92%
Activity (HL-60 [33]): Dose-Dependent Effect
inhibition (U-937 [16]): Dose-Dependent Effect
